The conditions of series [1]: cited from earlier work.
Series [2] is described as follows: Enzalutamide and N-desmethyl enzalutamide trough plasma PK (LC–MS/MS). The following applies: for ENZAdm Cmin D1: 24 h sample relative to Cmin D0; for ENZAdm Cmin D1 / ENZAdm Cmin D0: geometric mean (geometric SD); for ENZAdm Cmin D0: pre 1st venetoclax sample on day 1. As to the method: Additional samples were collected prior to dosing on days 8, 15, 21, and 57 (Fig. 1A). Samples were centrifuged at approximately 1,000 × g, and plasma was stored at −70 °C or colder until analysis.
Plasma PK parameters were derived from the data by non-compartmental methods with WinNonlin (Certara, Princeton, NJ). Statistical analyses for PK parameter values were performed using SPSS 27.0 for Windows (SPSS Inc., Chicago, IL). Within patient variability in Cmin was calculated from the day 8 through day 57 data across doses by calculating 100 × the square root of the mean square within groups obtained after ANOVA of log-transformed values of these parameters with subject as a factor.

For the next series, the system named is CYP3A4. The note with it: a sensitive CYP3A4 substrate; cited from earlier work.
The next series concerns AR−/lo LAPC9-CRPC. More on the design: method as in PMID 30190514. The note with it: single agent; cited from earlier work.

Regarding `CC1(C)C(=O)N(c2ccc(C#N)c(C(F)(F)F)c2)C(=S)N1c1ccc(C(N)=O)c(F)c1` [N-desmethyl enzalutamide], in series [1], the “N-desmethyl enzalutamide concentration in previous reports” value was 13 µg/L. Further, the “Intrapatient variability in Cmin” value in series [2] (N-desmethyl enzalutamide, from day 1 through 57) is 10 %CV. Further, the “ENZAdm Cmin D1” value is 7.59 (1.34) µg/mL in series [2] (venetoclax 400 mg (N=3)), 15.1 (1.12) µg/mL in series [2] (venetoclax 600 mg (N=3)) and 14.2 (1.21) µg/mL in series [2] (venetoclax 800 mg (N=4)). Also, the “ENZAdm Cmin D0” value in series [2] (venetoclax 400 mg (N=3)) was 7.04 (1.31) µg/mL; in series [2] (venetoclax 600 mg (N=3)) it was 15.2 (1.07) µg/mL.
On to `CNC(=O)c1ccc(N2C(=S)N(c3ccc(C#N)c(C(F)(F)F)c3)C(=O)C2(C)C)cc1F` [enzalutamide], for which the “Enzalutamide concentration in previous reports” value in series [1] was 11.4 µg/L. For the same compound, the “Increase in oral clearance of midazolam” value in the series on CYP3A4 is reported as “sevenfold”. Besides, the “Intrapatient variability in Cmin” value in series [2] (male, human, in vivo) came to 7.0 %CV. In addition, the “ENZA Cmin D1” value in series [2] (male, human, in vivo, 24 h) is given as 12.4 (1.19) µg/mL. Besides, in the series with AR−/lo LAPC9-CRPC, the “Growth of AR−/lo LAPC9-CRPC” value is recorded as “not”.
